Legend:
Format in all cases: cell-based
CaCo2 cells = test: Proliferation of CaCo2 cells under 5-ASA treatment (preliminary experiments)
[1] = tested on: onco-suppressor genes in CaCo2 cells; test: Affimetrix microarray analysis of transcriptome changes in CaCo2 cells; settings: 20 mM 5-ASA for 96 h
Description: (§1) To investigate the molecular mechanisms underlying this effect we performed a microarray analysis, using the Affimetrix methodology, in order to assess the transcriptome changes determined on CaCo2 cells by treatment with 20 mM 5-ASA for 96 h. […] This gene codes for a member of the cadherin superfamily and, based on previous reports by other authors, appeared as a putative inhibitor of the β-catenin signalling pathway, i.e. a cell proliferation pathway mediated by the activity of the β-catenin transcription factor^16,17. The relevance of this finding resides in the observation that the β-catenin signalling pathway is constitutively activated in CRC. […] Up-regulation of mRNA expression resulted to be 12-fold for μ-protocadherin, 16-fold for p21^waf-1, 4 to 6-fold for KLF4 and CEBPα and 2 to 3-fold Axin 1 and ICAT. […] The up-regulation of these genes appeared also more pronounced at the end of stimulation (96 h). mRNA expression of E-cadherin and β-catenin appeared, conversely, unaffected (FIG. 1).

[2] = tested on: β-catenin signalling pathway genes in CaCo2 colon adenocarcinoma cells; test: QRT-PCR analysis of genes regulating the β-catenin signalling pathway in CaCo2 cells; settings: 20 mM 5-ASA
Description: as §1
FIG. 1. QRT-PCR analysis of genes belonging to the β-catenin signalling pathway in CaCo2 cells treated with 5-ASA. Cells under the experimental conditions described in Results were analyzed by QRT-PCR to estimate the mRNA expression of genes belonging to the β-catenin signalling pathway, all indicated on y-axis. The effect determined by 5-ASA treatment on the mRNA expression of KLF4 and CEBPα onco-suppressor genes is also shown.
Total RNA was extracted from cell suspensions and frozen tissues by means of the Qiagen total RNA purification kit as recommended by the manufacturer (Qiagen, Valencia, Calif.). RNA integrity and concentration were verified using the Bio-Analyzer technique (Applied Biosystem, Foster City, Calif.). 100 ng of total RNA were reverse transcribed using the High Capacity cDNA Archive Kit (Applied Biosystems) according to the manufacturer's instructions. QRT-PCR was performed with an ABI PRISM 7900 sequence detection system (Applied Biosystems) to quantify the relative levels of mRNA in the samples. Primers and probes for mRNA amplification of μ-protocadherin, E-cadherin, β-catenin, Axin-1, Inhibitor of β-Catenin and TCF-4 (ICAT), p21^waf-1, KLF4, CEBPα, and glyceraldehyde-3-phosphate dehydrogenase (GAPDH) were designed by Applied Biosystems. Each cDNA sample was run in triplicate in 50 μl reaction volume using Taqman Universal PCR Master Mix (Applied Biosystems). Thermal cycling was started with an initial denaturation at 50° C. for 2 min and 95° C. for 10 min, followed by 40 thermal cycles of 15 sec at 95° C. and 1 min at 60° C. Evaluation of QRT-PCR signals was performed using the ΔΔCt relative quantitation method. […] The values obtained were expressed in terms of relative quantity (RQ) of mRNA level variation.

[3] = tested on: μ-protocadherin protein in CaCo2 cells; test: Time course Western blot of μ-protocadherin protein expression in CaCo2 cells; settings: 20 mM 5-ASA for up to 96 h, 24 h intervals
Description: To confirm μ-protocadherin induction we performed a time course Western blot analysis on CaCo2 cells undergoing exposure to 20 mM 5-ASA for up to 96 h. […] FIG. 2. Results of a time course Western blot analysis evaluating the expression of μ-protocadherin protein in CaCo2 cells treated with 5-ASA. This analysis was performed on cytoplasmic extracts of studied cells, at 24 h intervals following treatment with 5-ASA. Analyzed cell samples are indicated on the top. Normalization of the protein amount loaded in each lane was achieved using a pan-actin antibody able to detect either cytoplasmic or nuclear actin.

[4] = tested on: β-catenin protein in CaCo2 cells; test: Immunofluorescence assay of sub-cellular distribution of β-catenin in CaCo2 cells; settings: 20 mM 5-ASA, after 96 h of culture
Description: Due to the particular regulation mechanisms controlling the β-catenin signalling pathway, levels of β-catenin protein observed in the different subcellular compartments represent reliable indicators of the extent of its activation. Based on this premise we performed an immunofluorescence assay to assess the sub-cellular distribution of β-catenin protein in CaCo2 cells undergoing treatment with 20 mM 5-ASA. […] FIG. 3. Immunofluorescence analysis of β-catenin protein on CaCo2 cells exposed to 5-ASA treatment. Cells were stimulated with 5-ASA as explained in Results and subsequently stained with an anti-β-catenin primary antibody and a FITC conjugated secondary antibody (green fluorescence). Untreated control cells (CONT.) were also analyzed. Nuclei were counterstained with DAPI (blue fluorescence). Merge images, of the two analyzed fluorescence signals, are also shown.

[5] = tested on: μ-protocadherin/β-catenin protein complex in CaCo2 cells; test: Coimmunoprecipitation analysis of μ-protocadherin/β-catenin protein interaction in CaCo2 cells; settings: lysates of CaCo2 cells, 20 mM 5-ASA for 96 h
Description: The hypothesis arising from our data would directly imply that μ-protocadherin, as other proteins belonging to the cadherin superfamily, is able to bind β-catenin on the plasmatic membrane. To verify this interaction we performed co-immunoprecipitation experiments in which β-catenin was immunoprecipitated from lysates of CaCo2 cells treated with 20 mM 5-ASA for 96 h using a specific antibody and the immunoprecipitate was subsequently analyzed by Western blot carried out with a distinct antibody able to detect μ-protocadherin. […] FIG. 4. Coimmunoprecipitation analysis of μ-protocadherin/β-catenin protein interaction. […] Western blot analysis of μ-protocadherin expression was performed in cell lysates of control untreated and 5-ASA treated CaCo2 cells (Input, left panel), immunoprecipitates obtained by the same cells using normal control IgG (middle panel) and immunoprecipitates obtained by the same cells using an anti-β-catenin antibody (right panel). IP, immunoprecipitation; WB, Western blot; Ab antibody.

[6] = tested on: β-catenin signalling pathway genes in HT29 colon adenocarcinoma cell line; test: QRT-PCR analysis of β-catenin signalling pathway genes in HT29 cells; settings: 20 mM 5-ASA, 96 h
Description: These findings were also confirmed in another colon adenocarcinoma cell line, named HT29, under the same experimental conditions.
FIG. 5. Biological effects determined by treatment with 5-ASA on the HT29 colon adenocarcinoma cell line. The mRNA expression variations of gene belonging to the β-catenin signalling pathway were analyzed in HT29 cells using the QRT-PCR reaction under the experimental conditions described in Results and in FIG. 1.
Total RNA was extracted from cell suspensions and frozen tissues by means of the Qiagen total RNA purification kit as recommended by the manufacturer (Qiagen, Valencia, Calif.). RNA integrity and concentration were verified using the Bio-Analyzer technique (Applied Biosystem, Foster City, Calif.). 100 ng of total RNA were reverse transcribed using the High Capacity cDNA Archive Kit (Applied Biosystems) according to the manufacturer's instructions. QRT-PCR was performed with an ABI PRISM 7900 sequence detection system (Applied Biosystems) to quantify the relative levels of mRNA in the samples. […] Evaluation of QRT-PCR signals was performed using the ΔΔCt relative quantitation method. […] The values obtained were expressed in terms of relative quantity (RQ) of mRNA level variation.

[7] = 48 and 96 h (more pronounced at 96 h)

## Nc1ccc(O)c(C(=O)O)c1 [5-ASA, 5 aminosalicylic acid]
CaCo2 cells
  proliferation activity of CaCo2 cells: inhibits the proliferation activity
[1]
  expression of onco-suppressor genes (μ-protocadherin, KLF4, CEBPα) by microarray: up-regulated expression
[2]; 48 and 96 h
  mRNA expression of E-cadherin: unaffected
  mRNA expression of β-catenin: unaffected
[2]; [7]
  up-regulation of p21^waf-1 mRNA expression: 16 fold
  up-regulation of μ-protocadherin mRNA expression: 12 fold
[3]
  μ-protocadherin protein expression in cytoplasmic extract (Western blot): gradually but remarkably induced
[4]
  sub-cellular localization of β-catenin signal: almost exclusively localized in the plasmatic membrane
[5]
  μ-protocadherin bands (93 and 110 kDa) in β-catenin immunoprecipitate: interacting with β-catenin
[6]
  induction of p21^waf-1 mRNA expression: 5 fold
  induction of μ-protocadherin mRNA expression: 3 fold
